Measured values as given in article PMC4220016, “The binding characteristics and orientation of a novel radioligand with distinct properties at 5-HT3A and 5-HT3AB receptors” (Neuropharmacology, 2014).
Several values for one entry are separate records, joined by “and”; a condition that tells them apart may be missing. Equal entries are not always repeated. Where two headings read alike, the source gives them in different places.

Legend:
5-HT3A receptors [1] = target: T1, 5-HT3A receptors (Homo sapiens, UniProt P46098); assay: biochemical; type: binding; design: expressed in transfected cells; host or cells: HEK 293; settings: 5-HT3A
T1 sequence (P46098 24-478): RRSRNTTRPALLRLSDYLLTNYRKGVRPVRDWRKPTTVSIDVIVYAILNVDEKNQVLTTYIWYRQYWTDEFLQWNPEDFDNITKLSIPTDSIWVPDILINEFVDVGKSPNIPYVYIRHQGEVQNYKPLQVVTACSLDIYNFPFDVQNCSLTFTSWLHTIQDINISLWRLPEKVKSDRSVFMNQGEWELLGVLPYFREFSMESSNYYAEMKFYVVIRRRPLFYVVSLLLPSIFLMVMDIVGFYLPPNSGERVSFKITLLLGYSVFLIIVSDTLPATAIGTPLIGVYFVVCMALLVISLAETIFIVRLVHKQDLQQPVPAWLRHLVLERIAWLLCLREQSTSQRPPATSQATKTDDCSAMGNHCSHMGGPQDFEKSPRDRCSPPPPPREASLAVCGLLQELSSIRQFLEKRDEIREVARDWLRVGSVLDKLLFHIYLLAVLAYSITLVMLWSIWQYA

5-HT3A receptors [2] = target: 5-HT3A receptors; design: method as in Thompson et al., 2012; settings: ref Thompson et al., 2012, cited from earlier work
5-HT3A receptors [3] = target: T1, 5-HT3A receptors; assay: biochemical
5-HT3 receptors = test system: 5-HT3 receptors; design: method as in Thompson et al., 2012; settings: at μM concentrations; ref Thompson et al., 2012; cited from earlier work
5-HT3AB receptors [4] = target: T2, 5-HT3AB receptors (Homo sapiens, UniProt O95264+P46098); assay: Kinetic measurements (association, dissociation) at 5-HT3AB receptors; type: binding; design: expressed in transfected cells; host or cells: HEK 293; settings: for koff: from kobs plot; for Kd: from kinetic rates, Equ (4), read-out: Kd(nM) (kon/koff)
T2 sequence (P46098 24-478): T1 sequence (P46098 24-478)
T2 sequence (O95264 22-441): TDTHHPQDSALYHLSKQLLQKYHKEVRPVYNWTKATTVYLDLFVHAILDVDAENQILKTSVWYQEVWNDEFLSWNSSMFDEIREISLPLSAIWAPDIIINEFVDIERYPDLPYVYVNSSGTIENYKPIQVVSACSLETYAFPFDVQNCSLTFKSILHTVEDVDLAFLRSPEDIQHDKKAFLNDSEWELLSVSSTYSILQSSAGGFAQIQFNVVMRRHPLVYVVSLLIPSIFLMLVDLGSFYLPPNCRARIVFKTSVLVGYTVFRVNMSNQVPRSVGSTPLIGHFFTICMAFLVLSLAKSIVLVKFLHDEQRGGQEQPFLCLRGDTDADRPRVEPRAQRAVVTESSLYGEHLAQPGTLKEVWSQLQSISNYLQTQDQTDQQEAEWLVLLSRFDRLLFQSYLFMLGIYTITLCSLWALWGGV

α7 nACh receptors [5] = target: T3, α7 nACh receptors (Homo sapiens, UniProt P36544); settings: unlabelled VUF10166, ref Thompson et al., 2012; cited from earlier work
T3 sequence (P36544 23-502): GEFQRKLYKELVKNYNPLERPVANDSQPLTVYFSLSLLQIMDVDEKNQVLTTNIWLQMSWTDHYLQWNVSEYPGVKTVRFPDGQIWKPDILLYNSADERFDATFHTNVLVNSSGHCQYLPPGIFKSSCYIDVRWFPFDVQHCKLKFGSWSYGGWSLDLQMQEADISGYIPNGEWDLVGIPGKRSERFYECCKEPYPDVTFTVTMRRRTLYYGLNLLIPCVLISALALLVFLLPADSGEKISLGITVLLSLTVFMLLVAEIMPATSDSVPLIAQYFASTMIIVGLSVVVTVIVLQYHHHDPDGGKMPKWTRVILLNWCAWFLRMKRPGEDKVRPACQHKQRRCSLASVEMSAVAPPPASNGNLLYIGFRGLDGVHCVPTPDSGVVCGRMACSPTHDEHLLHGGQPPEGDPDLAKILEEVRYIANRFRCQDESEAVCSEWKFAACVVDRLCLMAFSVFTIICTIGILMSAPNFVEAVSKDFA

5-HT3A receptor L126C = target: T4, 5-HT3A receptor L126C (Homo sapiens, UniProt P46098, L121C); assay: Saturation binding of [^3H]VUF10166 at 5-HT3A receptor mutant; settings: L126C Kd versus wild type
T4 construct: expressed in transfected cells; host or cells: HEK 293
T4 sequence (P46098 24-478 L121C): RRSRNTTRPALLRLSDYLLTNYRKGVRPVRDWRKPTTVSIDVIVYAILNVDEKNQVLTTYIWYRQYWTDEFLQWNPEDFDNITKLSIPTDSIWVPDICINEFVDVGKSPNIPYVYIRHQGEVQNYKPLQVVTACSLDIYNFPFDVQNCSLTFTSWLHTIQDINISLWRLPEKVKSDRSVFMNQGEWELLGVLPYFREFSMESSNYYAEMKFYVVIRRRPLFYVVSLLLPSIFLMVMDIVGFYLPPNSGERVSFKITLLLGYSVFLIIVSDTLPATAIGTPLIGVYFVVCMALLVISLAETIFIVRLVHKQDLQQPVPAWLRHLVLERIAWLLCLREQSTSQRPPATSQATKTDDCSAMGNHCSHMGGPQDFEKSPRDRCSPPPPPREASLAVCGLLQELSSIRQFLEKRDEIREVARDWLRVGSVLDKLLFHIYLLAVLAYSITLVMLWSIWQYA
Description: (§1) Mutagenesis was performed using the QuikChange method (Agilent Technologies Inc., California, USA) on human 5-HT3A cDNA (accession number: P46098) cloned into pcDNA3.1 (Invitrogen, Paisley, UK). Cysteine residues were substituted for amino acids throughout each of the binding loops A–E (Fig. 1). To facilitate comparisons with previous work, we use the numbering of the equivalent residues in the mouse 5-HT3A subunit; for human numbering 5 should be subtracted from each residue number.
(§2) All data were analysed using GraphPad Prism 4.03. […].

5-HT3A receptor F226C = target: T5, 5-HT3A receptor F226C (Homo sapiens, UniProt P46098, F221C); assay: as above; settings: F226C Kd versus wild type
T5 construct: expressed in transfected cells; host or cells: HEK 293
T5 sequence (P46098 24-478 F221C): as the sequence (P46098 24-478 L121C) above, with C98L, F198C counted along it
Description: as §1, §2

5-HT3A receptor Y153C = target: T6, 5-HT3A receptor Y153C (Homo sapiens, UniProt P46098, Y148C); assay: as above; settings: Y153C Kd versus wild type
T6 construct: expressed in transfected cells; host or cells: HEK 293
T6 sequence (P46098 24-478 Y148C): as the sequence (P46098 24-478 L121C) above, with C98L, Y125C counted along it
Description: as §1, §2

5-HT3A receptors [6] = target: T1, 5-HT3A receptors; assay: Kinetic measurements (association, dissociation) at 5-HT3A receptors; type: binding; design: expressed in transfected cells; host or cells: HEK 293; settings: for koff: intercept of plot of kobs versus radioligand concentration; for kon: slope of plot of kobs versus radioligand concentration
5-HT3AB receptors [7] = target: T2, 5-HT3AB receptors; assay: biochemical; settings: Ki (nM) competition
5-HT3A receptor N232C = target: T7, 5-HT3A receptor N232C (Homo sapiens, UniProt P46098, N227C); assay: Saturation binding of [^3H]VUF10166 at 5-HT3A receptor mutant; settings: N232C Kd versus wild type
T7 construct: expressed in transfected cells; host or cells: HEK 293
T7 sequence (P46098 24-478 N227C): as the sequence (P46098 24-478 L121C) above, with C98L, N204C counted along it
Description: as §1
(§3) All data were analysed using GraphPad Prism 4.03.

5-HT3A receptor I139C = target: T8, 5-HT3A receptor I139C (Homo sapiens, UniProt P46098, I134C); assay: as above; settings: I139C Kd versus wild type
T8 construct: expressed in transfected cells; host or cells: HEK 293
T8 sequence (P46098 24-478 I134C): as the sequence (P46098 24-478 L121C) above, with C98L, I111C counted along it
Description: as §1, §3

5-HT3A receptor N128C = target: T9, 5-HT3A receptor N128C (Homo sapiens, UniProt P46098, N123C); assay: as above; settings: N128C Kd versus wild type
T9 construct: expressed in transfected cells; host or cells: HEK 293
T9 sequence (P46098 24-478 N123C): as the sequence (P46098 24-478 L121C) above, with C98L, N100C counted along it
Description: as §1, §3

5-HT3A receptor I71C = target: T10, 5-HT3A receptor I71C (Homo sapiens, UniProt P46098, I66C); assay: as above; settings: I71C Kd versus wild type
T10 construct: expressed in transfected cells; host or cells: HEK 293
T10 sequence (P46098 24-478 I66C): as the sequence (P46098 24-478 L121C) above, with I43C, C98L counted along it
Description: as §1, §3

5-HT3A receptor Q151C = target: T11, 5-HT3A receptor Q151C (Homo sapiens, UniProt P46098, Q146C); assay: as above; settings: Q151C Kd versus wild type
T11 construct: expressed in transfected cells; host or cells: HEK 293
T11 sequence (P46098 24-478 Q146C): as the sequence (P46098 24-478 L121C) above, with C98L, Q123C counted along it
Description: as §1, §3

5-HT3A receptor R92C = target: T12, 5-HT3A receptor R92C (Homo sapiens, UniProt P46098, R87C); assay: as above; settings: R92C Kd versus wild type
T12 construct: expressed in transfected cells; host or cells: HEK 293
T12 sequence (P46098 24-478 R87C): as the sequence (P46098 24-478 L121C) above, with R64C, C98L counted along it
Description: as §1, §3

5-HT3A receptor H185C = target: T13, 5-HT3A receptor H185C (Homo sapiens, UniProt P46098, H180C); assay: as above; settings: H185C Kd versus wild type
T13 construct: expressed in transfected cells; host or cells: HEK 293
T13 sequence (P46098 24-478 H180C): as the sequence (P46098 24-478 L121C) above, with C98L, H157C counted along it
Description: as §1, §3

5-HT3A receptor K112C = target: T14, 5-HT3A receptor K112C (Homo sapiens, UniProt P46098, K107C); assay: as above; settings: K112C Kd versus wild type
T14 construct: expressed in transfected cells; host or cells: HEK 293
T14 sequence (P46098 24-478 K107C): as the sequence (P46098 24-478 L121C) above, with K84C, C98L counted along it
Description: as §1, §3

5-HT3A receptor R145C = target: T15, 5-HT3A receptor R145C (Homo sapiens, UniProt P46098, R140C); assay: as above; settings: R145C Kd versus wild type
T15 construct: expressed in transfected cells; host or cells: HEK 293
T15 sequence (P46098 24-478 R140C): as the sequence (P46098 24-478 L121C) above, with C98L, R117C counted along it
Description: as §1, §3

5-HT3A receptor S114C = target: T16, 5-HT3A receptor S114C (Homo sapiens, UniProt P46098, S109C); assay: as above; settings: S114C Kd versus wild type
T16 construct: expressed in transfected cells; host or cells: HEK 293
T16 sequence (P46098 24-478 S109C): as the sequence (P46098 24-478 L121C) above, with S86C, C98L counted along it
Description: as §1, §3

5-HT3A receptors [8] = test system: 5-HT3A receptors; design: method as in Nakamura et al., 2013; settings: ref Nakamura et al., 2013; cited from earlier work
5-HT3AB receptors [9] = test system: 5-HT3AB receptors; design: method as in Nakamura et al., 2013; settings: ref Nakamura et al., 2013; cited from earlier work
α7 nACh receptors [10] = target: T3, α7 nACh receptors; assay: Saturation binding of [^3H]VUF10166 on α7 nACh receptors; settings: data not shown
5-HT3AB receptors [11] = target: T2, 5-HT3AB receptors; settings: competition with 0.7 nM [^3H]BRL43694
5-HT3A receptors [12] = target: T1, 5-HT3A receptors; settings: competition with 0.7 nM [^3H]BRL43694
5-HT3AB receptors [13] = target: T2, 5-HT3AB receptors; assay: Competition binding with [^3H]VUF10166 at 5-HT3AB receptors
5-HT3A receptors [14] = target: T1, 5-HT3A receptors; assay: Competition binding with [^3H]VUF10166 at 5-HT3A receptors
[15] = second component, [^3H]VUF10166 > 3 nM

Compound: CN1CCN(c2nc3ccccc3nc2Cl)CC1 [VUF10166, 2-chloro-3-(4-methylpiperazin-1-yl)quinoxaline]
- Kd (5-HT3A receptors [1]; tritiated ligand, transfected HEK 293 cells, 0 °C, read-out: Kd (nM) saturation): 0.18 ± 0.04 nM
- pKi (5-HT3A receptors [2]; 5-HT3A receptors): ~10
- affinity at 5-HT3A relative to 5-HT3AB receptors (5-HT3A receptors [2]): ~100 fold
- Ki (5-HT3A receptors [3]): 240 ± 110 pM
- agonist activity (in words) (5-HT3 receptors): low efficacy partial agonist
- kon (5-HT3AB receptors [4]; first component of two site fit, [^3H]VUF10166 < 3 nM): 1.02e+06 M⁻¹ s⁻¹
- koff (5-HT3AB receptors [4]; first component, [^3H]VUF10166 < 3 nM, read-out: koff (converted)): 0.0004 s⁻¹
- Kd (5-HT3AB receptors [4]; first component): 0.38 nM
- Kd (5-HT3AB receptors [4]; second component (>3 nM)): 22.4 nM
- kon (5-HT3AB receptors [4]; second component of two site fit, [^3H]VUF10166 > 3 nM): 120000 M⁻¹ s⁻¹
- koff (5-HT3AB receptors [4]; [15]): 0.0027 s⁻¹
- koff (5-HT3AB receptors [4]; second component, [^3H]VUF10166 > 3 nM, read-out: koff (converted)): 0.00267 s⁻¹
- competition with [^3H]epibatidine (in words) (α7 nACh receptors [5]): does not compete
- Fold change (5-HT3A receptor L126C): ~4
- Fold change (5-HT3A receptor F226C): 7
- Fold change (5-HT3A receptor Y153C): 10
- Kd (5-HT3A receptors [6]; calculated from kinetic rates, Equ (4), read-out: Kd(nM) (kon/koff)): 0.16 nM
- koff (5-HT3A receptors [6]; read-out: koff (converted)): 0.000167 s⁻¹
- kon (5-HT3A receptors [6]; read-out: kon (converted)): 1.04e+06 M⁻¹ s⁻¹
- Ki (5-HT3AB receptors [7]): 37 nM and 36.7 nM

Compound: [3H]CN1CCN(c2nc3ccccc3nc2Cl)CC1 [[^3H]VUF10166] [2-chloro-3-(4-[^3H]methylpiperazin-1-yl)quinoxaline]
- Fold change (5-HT3A receptor N232C): 9.0
- Fold change (5-HT3A receptor I139C): 7.4
- Fold change (5-HT3A receptor N128C): 3.3
- Fold change (5-HT3A receptor I71C): 1.1
- Fold change (5-HT3A receptor Q151C): 8.7
- Fold change (5-HT3A receptor R92C): 4.2
- Fold change (5-HT3A receptor H185C): 4.5
- Fold change (5-HT3A receptor K112C): 1.6
- Fold change (5-HT3A receptor R145C): 4.6
- Fold change (5-HT3A receptor S114C): 1.0
- average kon determined from kobs (Equ (5)) (5-HT3AB receptors [4]; below 3 nM [^3H]VUF10166): 8.77e+07 M/min
- koff from dissociation, double exponential, fast component (5-HT3AB receptors [4]; dissociation in 2 mM quipazine): 0.00378 ± 0.000933 s⁻¹
- koff from dissociation, double exponential, slow component (5-HT3AB receptors [4]; dissociation in 2 mM quipazine): 0.000167 ± 5e-05 s⁻¹
- koff (5-HT3AB receptors [4]; first component, [^3H]VUF10166 < 3 nM): 0.0004 s⁻¹
- koff (5-HT3AB receptors [4]; [15]): 0.0027 s⁻¹
- Fold change (5-HT3A receptor L126C): 4.2
- Fold change (5-HT3A receptor F226C): 7.6
- Fold change (5-HT3A receptor Y153C): 9.7
- kon determined directly from kobs values using Equ (5) (5-HT3A receptors [6]): 8.24e+07 M/min
- koff from dissociation, single exponential (5-HT3A receptors [6]; dissociation in 2 mM quipazine): 0.000183 ± 1.7e-05 s⁻¹
- koff (5-HT3A receptors [6]): 0.00017 s⁻¹
- kon (5-HT3A receptors [6]): 1.04e+06 M⁻¹ s⁻¹

Compound: CC[C@@]1(O)C(=O)OCc2c1cc1n(c2=O)Cc2cc3c(CN(C)C)c(O)ccc3nc2-1 [topotecan]
- effect on 5-HT3A receptors (in words) (5-HT3A receptors [8]): inhibit
- effect on 5-HT3AB receptors (in words) (5-HT3AB receptors [9]): potentiate

Compound: [3H]CN1CCN(c2nc3ccccc3nc2Cl)CC1 [[^3H]VUF10166, 2-chloro-3-(4-[^3H]methylpiperazin-1-yl)quinoxaline]
- non-specific binding (5-HT3A receptors [1]; non-specific binding determined with 2 mM quipazine): < 5%
- Bmax (5-HT3A receptors [1]; paired samples): 2229 ± 158 fmol/mg
- specific saturable binding (in words) (α7 nACh receptors [10]): no specific saturable binding

Compound: NC(N)=NC(N)=Nc1cccc(Cl)c1 [mCPBG, meta-chlorophenylbiguanide]
- pIC50 5-HT3AB (5-HT3AB receptors [11]): 6.64 ± 0.12 (5)
- pIC50 5-HT3A (5-HT3A receptors [12]): 6.88 ± 0.13 (7)
- inhibition of specific [^3H]VUF10166 binding (in words) (5-HT3AB receptors [13]; 5-HT3AB): inhibited
- pIC50 5-HT3AB (5-HT3AB receptors [13]; competition with 0.6 nM [^3H]VUF10166): 6.07 ± 0.20 (5)
- inhibition of specific [^3H]VUF10166 binding (in words) (5-HT3A receptors [14]; 5-HT3A): inhibited
- pIC50 5-HT3A (5-HT3A receptors [14]; competition with 0.2 nM [^3H]VUF10166): 7.49 ± 0.06 (4)
